Like-named read-outs stand apart in the source and are kept apart here.

Broadly, the IC50 is the point on the concentration scale where inhibition reaches its midpoint.

Experiment [1] concerns the target purified EZH2 enzyme (Homo sapiens (Human), UniProt Q15910). Nature of the experiment: biochemical. The settings on record: purified EZH2, 4 μM SAM, histone 3.3 substrate, 30° C. three hours, fluorescence polarization readout. (In general: Polarisation of emitted light reports the rotation of a fluorescent probe.)
For experiment [2], the system named is EZH2-mediated histone H3 Lys27 trimethylation in Pfeiffer cells (mutant EZH2 A677G). The experiment can be described thus: Tri-Methyl Histone H3 (Lys 27) Sandwich ELISA in Pfeiffer cells. It counts as cell-based, human. A general note: In an ELISA, binding on a coated surface is turned into a signal by an enzyme label.
Procedure: Briefly, Pfeiffer cells were cultured in RPMI medium supplemented with 10% fetal bovine serum and 1% penicillin and 1% streptomycin in 96 well culture plates at 37° C. to a density of 8000 cells/90 μl/well and the cells were harvested. […] The plates were incubated at 37° C. for 96 hours.
After incubation, the cells were pelleted by centrifugation in a pre-cooled 4° C. rotor at 1,100 rpm for 10 min and the supernatant was removed by aspiration. The cell pellet was resuspended in 55 μl of Lysis Buffer (0.4M HCl) and incubated on ice with periodic shaking for 30 minutes. The lysed cells were subjected to centrifugation at 4,200 rpm for 10 min at 4° C. and the supernatant containing acid-soluble proteins was collected and the remainder discarded.
A 65 μl aliquot of each cell lysate was added to a well of a microwell strip, the microwells were sealed using tape and incubated either at 37° C. for two hours or at 4° C. overnight. After incubation, the tape was removed at the microwells were washed four times using 200 μl of 1× Wash Buffer. To each washed microwell, a 100 μl aliquot of an anti-trimethyl histone H3 Lys27 Detection Antibody solution was added and the microwells were incubated at 37° C. for one hour. The Detection Antibody solution was removed by aspiration and the wells were washed four times each using 200 μl of 1× Wash Buffer.
A 100 μl aliquot of an HRP-linked secondary antibody was added to each well, the wells were sealed with tape and incubated at 37° C. for 30 min. The HRP-linked secondary antibody solution was removed by aspiration and the wells were washed four times using 200 μl of 1× Wash Buffer. A 100 μl aliquot of a TMB substrate was added to each well, the wells were sealed with tape and incubated at 37° C. for 10 min or 25° C. for 30 min. The reaction was stopped by the addition of 100 μl aliquot of a STOP solution and the plate was shaken briefly. The degree of histone H3 trimethylation was determined using a spectrophotometric readout by measuring the absorbance at 450 nm and then calculating the amount of trimethylated histone H3.
Setting [3] is: Homo sapiens, Pfeiffer cells (DLBCL, EZH2 A677G), 96 hours incubation, H3K27me3 ELISA, absorbance at 450 nm, read-out: IC50.
Setting [4] is: Pfeiffer cells (DLBCL, EZH2 A677G), 96 hours incubation, H3K27me3 ELISA, absorbance at 450 nm, read-out: IC50.

Take `Cc1[nH]c(=O)c(CN2CCc3ccc(OC(C)C)c(Cl)c3C2=O)c2occc12` [Example 6, 7-((8-chloro-7-isopropoxy-1-oxo-3,4-dihydroisoquinolin-2(1H)-yl)methyl)-4-methylfuro[3,2-c]pyridin-6(5H)-one]: the IC50 in experiment [1] stood at 7 nM; in experiment [2] (setting [3]) it was 44 nM.

In the case of “7-[[5-bromo-8-chloro-7-(3,5-dimethyltriazol-4-yl)-1-oxo-3,4-dihydroisoquinolin-2-yl]methyl]-4-methyl-5H-furo[3,2-c]pyridin-6-one [Example 7]”, the IC50 in experiment [1] worked out at 3 nM; in experiment [2] (setting [4]), 30 nM.

Turning to `CCN(c1cc(Cl)c2c(c1Cl)C(=O)N(Cc1c(=O)[nH]c(C)c3ccoc13)CC2)C1CCOCC1` [Example 3, 7-((5,8-dichloro-7-(ethyl(tetrahydro-2H-pyran-4-yl)amino)-1-oxo-3,4-dihydroisoquinolin-2(1H)-yl)methyl)-4-methylfuro[3,2-c]pyridin-6(5H)-on], the IC50 was determined as 5 nM in experiment [1] and 31 nM in experiment [2] (setting [3]).

With `COC(c1cc(Cl)c2c(c1Cl)C(=O)N(Cc1c(=O)[nH]c(C)c3ccoc13)CC2)C1COC1` (centres unmarked) [Example 9, 7-((5,8-dichloro-7-(methoxy(oxetan-3-yl)methyl)-1-oxo-3,4-dihydroisoquinolin-2(1H)-yl)methyl)-4-methylfuro[3,2-c]pyridin-6(5H)-one], the IC50 in experiment [1] was 4 nM; in experiment [2] (Homo sapiens, Pfeiffer, 96 h) it was 126 nM.

In the case of `COC(c1cc(Cl)c2c(c1Cl)C(=O)N(Cc1c(=O)[nH]c(C)c3ccoc13)CC2)C1CN(C)C1` (centres unmarked) [Example 10, 7-((5,8-dichloro-7-(methoxy(1-methylazetidin-3-yl)methyl)-1-oxo-3,4-dihydroisoquinolin-2(1H)-yl)methyl)-4-methylfuro[3,2-c]pyridin-6(5H)-one], the concentration for half-maximal inhibition (IC50) in experiment [2] (setting [3]) is 336 nM.

As for `Cc1cc2c(C)[nH]c(=O)c(CN3CCc4c(Cl)cc(OC(C)C)c(Cl)c4C3=O)c2o1` [Example 8, 7-((5,8-dichloro-7-isopropoxy-1-oxo-3,4-dihydroisoquinolin-2(1H)-yl)methyl)-2,4-dimethylfuro[3,2-c]pyridin-6(5H)-one], the IC50 in experiment [1] came out at 95 nM.

Regarding `COC(c1cc(Cl)c2c(c1Cl)C(=O)N(Cc1c(=O)[nH]c(C)c3ccoc13)CC2)C1CS(=O)(=O)C1` (centres unmarked) [Example 18, 7-((5,8-dichloro-7-((1,1-dioxidothietan-3-yl)(methoxy)methyl)-1-oxo-3,4-dihydroisoquinolin-2(1H)-yl)methyl)-4-methylfuro[3,2-c]pyridin-6(5H)-one], the IC50 in experiment [1] amounted to 2 nM; in experiment [2] (setting [3]) it was 78 nM.

Regarding `Cc1noc(C)c1-c1cc(Cl)c2c(c1Cl)C(=O)N(Cc1c(=O)[nH]c(C)c3ccoc13)CC2` [Example 16, 7-((5,8-dichloro-7-(3,5-dimethylisoxazol-4-yl)-1-oxo-3,4-dihydroisoquinolin-2(1H)-yl)methyl)-4-methylfuro[3,2-c]pyridin-6(5H)-one], the IC50 turned out to be 3 nM in experiment [1] and 7 nM in experiment [2] (setting [3]).

For the molecule `COC(c1cc(Cl)c2c(c1Cl)C(=O)N(Cc1c(=O)[nH]c(C)c3[nH]ccc13)CC2)C1CN(C)C1` (centres unmarked) [Example 11, 5,8-dichloro-7-(methoxy(1-methylazetidin-3-yl)methyl)-2-((7-methyl-5-oxo-5,6-dihydro-1H-pyrrolo[2,3-c]pyridin-4-yl)methyl)-3,4-dihydroisoquinolin-1(2H)-one], the half-maximal inhibitory concentration (IC50) came out at 10 nM in experiment [1] and 12 nM in experiment [2] (setting [3]).

For the molecule `Cc1[nH]c(=O)c(CN2CCc3c(Cl)cc(C(C)C4COC4)c(Cl)c3C2=O)c2cc[nH]c12` (centres unmarked) [Example 19, 5,8-dichloro-2-[(7-methyl-5-oxo-1,6-dihydropyrrolo[2,3-c]pyridin-4-yl)methyl]-7-[1-(oxetan-3-yl)ethyl]-3,4-dihydroisoquinolin-1-one], the IC50 was determined as 2 nM in experiment [1] and 78 nM in experiment [2] (setting [3]).

As for `Cc1noc(C)c1-c1cc(Cl)c2c(c1Cl)C(=O)N(Cc1c(=O)[nH]c(C)c3[nH]ccc13)CC2` [Example 13, 5,8-dichloro-7-(3,5-dimethylisoxazol-4-yl)-2-((7-methyl-5-oxo-5,6-dihydro-1H-pyrrolo[2,3-c]pyridin-4-yl)methyl)-3,4-dihydroisoquinolin-1 (2H)-one], the midpoint of inhibition in experiment [1], the IC50, lay at 2 nM.

`Cc1[nH]c(=O)c(CN2CCc3c(Cl)cc(N4CC5(CCOCC5)C4)c(Cl)c3C2=O)c2cc[nH]c12` [Example 5, 5,8-dichloro-2-((7-methyl-5-oxo-5,6-dihydro-1H-pyrrolo[2,3-c]pyridin-4-yl)methyl)-7-(7-oxa-2-azaspiro[3.5]nonan-2-yl)-3,4-dihydroisoquinolin-1(2H)-one]: the IC50 in experiment [1] is less than 0.5 nM; in experiment [2] (setting [3]) it was 17 nM.

For `COC(c1cc(Cl)c2c(c1Cl)C(=O)N(Cc1c(=O)[nH]c(C)c3sccc13)CC2)C1COC1` (centres unmarked) [Example 12, 4-((5,8-dichloro-7-(methoxy(oxetan-3-yl)methyl)-1-oxo-3,4-dihydroisoquinolin-2(1H)-yl)methyl)-7-methylthieno[2,3-c]pyridin-5(6H)-one], the IC50 was determined as 37 nM in experiment [1] and 330 nM in experiment [2] (setting [3]).

Regarding `Cc1[nH]c(=O)c(CN2CCc3c(Cl)cc(N4CC5(CCOCC5)C4)c(Cl)c3C2=O)c2occc12` [Example 2, 7-((5,8-dichloro-1-oxo-7-(7-oxa-2-azaspiro[3.5]nonan-2-yl)-3,4-dihydroisoquinolin-2(1H)-yl)methyl)-4-methylfuro[3,2-c]pyridin-6(5H)-one], the half-inhibitory concentration (IC50) in experiment [1] stood at 5 nM; in experiment [2] (setting [3]), 273 nM.

In turn, `COC(c1cc(Cl)c2c(c1Cl)C(=O)N(Cc1c(=O)[nH]c(C)c3[nH]ccc13)CC2)C1COC1` (centres unmarked) [Example 17, 5,8-dichloro-7-[methoxy(oxetan-3-yl)methyl]-2-[(7-methyl-5-oxo-1,6-dihydropyrrolo[2,3-c]pyridin-4-yl)methyl]-3,4-dihydroisoquinolin-1-one] came in with an IC50 in experiment [1] of 1 nM.

As for “5,8-dichloro-7-(3,5-dimethyltriazol-4-yl)-2-[(7-methyl-5-oxo-1,6-dihydropyrrolo[2,3-c]pyridin-4-yl)methyl]-3,4-dihydroisoquinolin-1-one [Example 15]”, the 50% inhibitory concentration (IC50) is 2 nM in experiment [1] and 6 nM in experiment [2] (setting [4]).

On to `Cc1[nH]c(=O)c(CN2CCc3c(Cl)cc(OC(C)C)c(Cl)c3C2=O)c2occc12` [Example 1, 7-((5,8-dichloro-7-isopropoxy-1-oxo-3,4-dihydroisoquinolin-2(1H)-yl)methyl)-4-methylfuro[3,2-c]pyridin-6(5H)-one], for which the concentration for half-maximal inhibition (IC50) came out at 6 nM in experiment [1] and 759 nM in experiment [2] (Homo sapiens, Pfeiffer, 96 h).

As to `Cc1[nH]c(=O)c(CN2CCc3c(Cl)cc(OC(C)C)c(Cl)c3C2=O)c2cc[nH]c12` [Example 4, 5,8-dichloro-7-isopropoxy-2-((7-methyl-5-oxo-5,6-dihydro-1H-pyrrolo[2,3-c]pyridin-4-yl)methyl)-3,4-dihydroisoquinolin-1(2H)-one], the IC50 was found to be 202 nM in experiment [1] and 1040 nM in experiment [2] (setting [3]).

(Values after patent publication US10266542B2, “EZH2 inhibitors” (priority 2017, dated 2019).)
